Where two headings read alike, the source gives them in different places.
Tests used:
[1] = tested on: human colon (HCT-116) cancer cell line; assay: MTT cytotoxicity assay, HCT116; format: cell-based; details: for IC50: Homo sapiens, HCT-116, MTT, 72 h, six concentrations, mean ± SD of three independent experiments
Procedure: (§1) To establish a SAR of the C-3 (R2) and C-23 (R1) of the AA derivatives, new compounds were subjected to MTT assays to evaluate their in-vitro antiproliferative activities against ovarian (SKOV-3) and colon (HCT-116) cancer cell lines, the IC50 values (the concentration that inhibits 50% of cell growth) of which are summarized in Table 1. Doxorubicin was used as the positive drug.
(§2) HCT116, SKOV-3, A549, A2780, HepG2, HL-60 and MCF-7 cells were incubated in DMEM with 10% heat-inactivated FBS in a humidified atmosphere of 5.0% CO2 at 37 °C. The in-vitro cytotoxicity of AA derivatives was determined using MTT assay. A 100-μL volume of culture medium at a concentration of 3 × 10^4 cell/mL was added to 96-well plate wells, which were maintained in a humidified atmosphere of 5.0% CO2 at 37 °C. After 24 h, 10 μL solution of AA derivatives and doxorubicin dissolved in DMSO and phophate buffered saline (PBS) and then diluted with DMEM under a concentration gradient, was added in the wells for final concentrations of 100, 10, 1, 0.1, 0.01, 0.001 μM of compounds in HCT116 and SKOV-3 cells and 125, 25, 5, 1, 0.2, 0.04 μM in A549, A2780, HepG2, HL-60 and MCF-7 cells. After 72 h incubation in a humidified atmosphere of 5.0% CO2 at 37 °C, 20 μl MTT solution (5 mg/mL) was added into each well and the cells were incubated. After 4 h, 100 μL HCl aqueous solution (0.01 M) with 10% SDS and 5% isobutanol was added into each well to dissolve the precipitated formazan and the absorbance was read at 570 nm on Thermo Scientific Varioskan Flash plate reader. All IC50 values were averaged from three independent experiments.

[2] = tested on: A549 cells; assay: MTT cytotoxicity assay, A549; format: cell-based; details: Homo sapiens, 72 h, mean ± SD of three independent experiments
Procedure: as §2

[3] = tested on: A2780 cells; assay: MTT cytotoxicity assay, A2780; format: cell-based; details: Homo sapiens, 72 h, mean ± SD of three independent experiments
Procedure: as §2

[4] = tested on: HepG2 cells; assay: MTT cytotoxicity assay, HepG2; format: cell-based; details: Homo sapiens, 72 h, mean ± SD of three independent experiments
Procedure: as §2

[5] = tested on: HL-60 cells; assay: MTT cytotoxicity assay, HL-60; format: cell-based; details: Homo sapiens, 72 h, mean ± SD of three independent experiments
Procedure: as §2

[6] = tested on: MCF-7 cells; assay: MTT cytotoxicity assay, MCF-7; format: cell-based; details: Homo sapiens, MCF7, 72 h, mean ± SD of three independent experiments
Procedure: as §2

[7] = tested on: human normal cell line (HUVEC); assay: CCK-8 cytotoxicity assay, human normal cell line HUVEC; format: cell-based; details: for cytotoxic effect on HUVEC cell viability: CCK-8, concentrations of 125, 25, 5, 1, 0.2, 0.04 μM, 72 h; for IC50: HUVEC, CCK-8, 72 h, human normal cell line
Procedure: Additionally, the cytotoxic activities of compounds 10, 14j and 14k were evaluated against one human normal cell line (HUVEC) using CCK-8 assay (Table 3).
HUVEC cell lines were incubated in DMEM with 10% heat-inactivated FBS in a humidified atmosphere of 5.0% CO2 at 37 °C. The in-vitro cytotoxicity of AA derivatives was determined using CCK-8. A 100-μL volume of culture medium at a concentration of 3 × 10^4 cell/mL was added to 96-well plate wells, and these were maintained in a humidified atmosphere of 5.0% CO2 at 37 °C. After 24 h, 10 μL solution of AA derivatives dissolved in DMSO and PBS and then diluted with DMEM under a concentration gradient was added to the wells for final concentrations of 125, 25, 5, 1, 0.2, 0.04 μM. After 72 h incubation in a humidified atmosphere of 5.0% CO2 at 37 °C, 10 μl CCK-8 solution was added into each well and the cells were incubated for another 1 h, and the absorbance was read at 450 nm. All cell viability levels were averaged from three independent experiments.

[8] = tested on: human ovarian (SKOV-3) cancer cell line; assay: MTT cytotoxicity assay, SKOV-3; format: cell-based; details: Homo sapiens, SK-OV-3; MTT, 72 h, six concentrations, mean ± SD of three independent experiments
Procedure: as §1, §2

[9] = tested on: A549 cells; set-up: method as in PMID 31057738; details: literature value for AA; cited from earlier work
[10] = tested on: A2780 cells; set-up: method as in PMID 30278332; details: literature value for AA; cited from earlier work
[11] = tested on: HepG2 cells; set-up: method as in PMID 31057738; details: literature value for AA; cited from earlier work
[12] = tested on: MCF-7 cells; set-up: method as in PMID 26974379; details: literature value for AA; cited from earlier work
[13] = tested on: human normal cell line (HUVEC); set-up: method as in PMID 25151580; details: literature value for AA; cited from earlier work
[14] = tested on: human ovarian cancer cells (A2780); set-up: method as in PMID 27416552, PMID 24268794; details: read-out: EC50 against human ovarian cancer cells (A2780); cited from earlier work

Compound | IC50 [1] | IC50 [2] | IC50 [3] | IC50 [4] | IC50 [5] | IC50 [6] | cytotoxic effect on HUVEC cell viability [7] | IC50 [7] | IC50 [8] | other results
CO[C@@H]1C[C@@]2(C)[C@@H](CC[C@]3(C)[C@@H]2CC=C2[C@@H]4[C@@H](C)[C@H](C)CC[C@]4(C(=O)NCc4ccccc4)CC[C@]23C)[C@](C)(C(=O)N(C)C)[C@H]1OC(C)=O [Compound 14j, α-Methoxy-3β-Acetoxy-Urs-12-Ene-28-Benzyl Amide-23-Dimethylamide] | 1.83 ± 0.91 µM | 6.72 ± 0.64 µM | 2.24 ± 0.52 µM | 3.77 ± 1.22 µM | 3.01 ± 0.44 µM | 5.89 ± 1.33 µM | no cytotoxic effect | > 125 µM |  | 
CO[C@@H]1C[C@@]2(C)[C@@H](CC[C@]3(C)[C@@H]2CC=C2[C@@H]4[C@@H](C)[C@H](C)CC[C@]4(C(=O)NCc4ccccc4)CC[C@]23C)[C@](C)(C(=O)N2CCN(C)CC2)[C@H]1O [Compound 13k, α-Methoxy-3β-Hydroxy-Urs-12-Ene-28-Benzylamide-23-(4-Methyl-1-Piperazinyl)-Amide] |  | 5.7 ± 0.58 µM | 13 ± 1.18 µM | 2.22 ± 0.68 µM | 10.7 ± 2.08 µM | 2.85 ± 0.25 µM |  |  |  | 
COC(=O)[C@@]1(C)[C@@H]2CC[C@]3(C)[C@H](CC=C4[C@@H]5[C@@H](C)[C@H](C)CC[C@]5(C(=O)NCc5ccccc5)CC[C@]43C)[C@@]2(C)C[C@@H](OC)[C@@H]1OC(C)=O [Compound 10, α-Methoxy-3β-Acetoxy-Urs-12-Ene-28-Benzylamide-23-Methyl Ester] | 1.08 ± 0.66 µM | > 125 µM | 1.28 ± 0.32 µM | 1.43 ± 0.32 µM | 0.47 ± 0.08 µM | 3.99 ± 1.21 µM | no cytotoxic effect | > 125 µM |  | fold more active than AA against HCT116 cell line ([1]; relative to AA): 23 fold
C[C@H]1[C@H](C)CC[C@]2(C(=O)O)CC[C@]3(C)C(=CC[C@@H]4[C@@]5(C)C[C@@H](O)[C@H](O)[C@@](C)(CO)[C@@H]5CC[C@]43C)[C@H]12 [AA, 2α,3β,23-trihydroxyurs-12-ene-28-oic acid] | 24.6 ± 3.26 µM |  |  |  |  |  |  |  | 20.5 ± 4.06 µM | IC50 [9]: 41 ± 0.87 µM; IC50 [10]: 28.2 ± 0.3 µM; IC50 [11]: 35.4 ± 1.47 µM; IC50 [12]: 68.5 ± 2.5 µM; IC50 [13]: > 100 µM
CO[C@@H]1C[C@@]2(C)[C@@H](CC[C@]3(C)[C@@H]2CC=C2[C@@H]4[C@@H](C)[C@H](C)CC[C@]4(C(=O)NCc4ccccc4)CC[C@]23C)[C@](C)(C(=O)N2CCN(C)CC2)[C@H]1OC(C)=O [Compound 14k, α-Methoxy-3β-Acetoxy-Urs-12-Ene-28-Benzylamide-23-(4-Methyl-1-Piperazinyl)-Amide] |  | 4.04 ± 0.51 µM | 4.31 ± 0.58 µM | 2.84 ± 0.46 µM | 3.36 ± 0.66 µM | 1.78 ± 0.38 µM | no cytotoxic effect | > 125 µM |  | 
CC(=O)O[C@@H]1C[C@]2(C)[C@H]3CC=C4[C@@H]5CC(C)(C)CC[C@]5(C(=O)NCc5ccccc5)CC[C@@]4(C)[C@]3(C)CC[C@H]2C(C)(C)[C@H]1OC(C)=O [EM2] |  |  |  |  |  |  |  |  |  | EC50 [14]: 0.5 µM
COC(=O)C(NC(=O)C1(C)C(OC(C)=O)C(OC)CC2(C)C1CCC1(C)C2CC=C2C3C(C)C(C)CCC3(C(=O)NCc3ccccc3)CCC21C)C(C)C [Compound 14g, N-(2α-Methoxy-3β-Acetoxy-Urs-12-Ene-28-Benzylamide-23-Oyl)-L-Valine Methyl Ester] | > 100 µM |  |  |  |  |  |  |  | > 100 µM | 
COc1cccc2c1C(=O)c1c(O)c3c(c(O)c1C2=O)C[C@@](O)(C(=O)CO)C[C@@H]3O[C@H]1C[C@H](N)[C@H](O)[C@H](C)O1 [Doxorubicin, reference compound] | 0.03 ± 0.02 µM |  |  |  |  |  |  |  | 0.08 ± 0.01 µM | 

Reference: PMC7464201, “Synthesis and Cytotoxic Activity of Novel C-23-Modified Asiatic Acid Derivatives” (Molecules, 2020)
